pIC50: −log10 of the molar value. Active and inactive are the calls of the source. No cut-off for these calls is given here.
Key:
[1] = target: T1, Sterol O-acyltransferase 1 (Homo sapiens, UniProt P35610); assay: Inhibition of ACAT1 in human monocytes-derived macrophages reduction in cholesteryl oleate formation preincubated for 2 hrs followed by [14C]-oleic acid/sodium oleate addition measured after 2 hrs in absence of albumin by TLC assay
T1 sequence (P35610 whole entry): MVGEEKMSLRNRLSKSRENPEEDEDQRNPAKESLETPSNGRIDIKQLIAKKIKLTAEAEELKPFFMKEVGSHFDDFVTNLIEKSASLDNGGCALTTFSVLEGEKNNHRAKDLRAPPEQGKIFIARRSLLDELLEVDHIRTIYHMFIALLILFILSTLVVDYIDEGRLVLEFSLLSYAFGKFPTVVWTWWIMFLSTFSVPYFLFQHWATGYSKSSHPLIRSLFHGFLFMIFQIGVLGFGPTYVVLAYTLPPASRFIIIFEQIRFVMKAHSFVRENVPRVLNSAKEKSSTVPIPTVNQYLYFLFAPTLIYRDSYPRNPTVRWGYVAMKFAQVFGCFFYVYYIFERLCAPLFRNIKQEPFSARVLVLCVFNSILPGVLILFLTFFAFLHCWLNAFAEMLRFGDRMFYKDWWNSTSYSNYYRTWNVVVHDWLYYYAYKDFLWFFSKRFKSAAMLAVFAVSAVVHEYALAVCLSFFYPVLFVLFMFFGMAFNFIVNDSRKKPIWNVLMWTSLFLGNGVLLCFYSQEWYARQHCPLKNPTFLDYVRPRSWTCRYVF

[2] = target: T1, Sterol O-acyltransferase 1; assay: Inhibition of ACAT1 in human monocytes-derived macrophages reduction in cholesteryl oleate formation preincubated for 2 hrs followed by [14C]-oleic acid/BSA/sodium oleate addition measured after 2 hrs by TLC assay
Hamster [3] = assay: Antiatherosclerotic activity in Bio F1B hamster model of diet-induced atherosclerosis assessed as reduction in lipid accumulation areas in aortic arch at 3 mg/kg/day added to chow pellets by oil red O staining based assay relative to control; type: functional; settings: Cricetinae
[4] = Inhibition of SOAT1 in arterial homogenates isolated from 1% cholesterol fed New Zealand white rabbit assessed as reduction in cholesteryl oleate formation incubated for 5 mins in presence of [14C]-oleoyl-CoA and BSA complex by TLC method; type: tissue-based, Oryctolagus cuniculus
Hamster [5] = assay: Toxicity in Bio F1B hamster model of diet-induced atherosclerosis assessed as reduction in total plasma cholesterol at 3 mg/kg/day added to chow pellets relative to control; type: organism-based; set-up: scale not given: the % may be the effect or the level left; settings: cricetinae, in vivo
Hamster [6] = assay: Antiatherosclerotic activity in Bio F1B hamster model of diet-induced atherosclerosis assessed as reduction in lipid accumulation areas in aortic arch at 10 mg/kg/day added to chow pellets by oil red O staining based assay relative to control; type: functional; settings: Cricetinae
Oryctolagus cuniculus = species on record: Oryctolagus cuniculus; assay: Selectivity ratio of IC50 for inhibition of SOAT2 in New Zealand white rabbit intestinal microsomes to IC50 for inhibition of SOAT1 in arterial homogenates isolated from 1% cholesterol fed New Zealand white rabbit
[7] = target: T2, Sterol O-acyltransferase 1 (Mus musculus, UniProt Q61263); assay: Inhibition of ACAT1 in mouse IC21 cells in absence of BSA; type: cell-based
T2 sequence (Q61263 whole entry): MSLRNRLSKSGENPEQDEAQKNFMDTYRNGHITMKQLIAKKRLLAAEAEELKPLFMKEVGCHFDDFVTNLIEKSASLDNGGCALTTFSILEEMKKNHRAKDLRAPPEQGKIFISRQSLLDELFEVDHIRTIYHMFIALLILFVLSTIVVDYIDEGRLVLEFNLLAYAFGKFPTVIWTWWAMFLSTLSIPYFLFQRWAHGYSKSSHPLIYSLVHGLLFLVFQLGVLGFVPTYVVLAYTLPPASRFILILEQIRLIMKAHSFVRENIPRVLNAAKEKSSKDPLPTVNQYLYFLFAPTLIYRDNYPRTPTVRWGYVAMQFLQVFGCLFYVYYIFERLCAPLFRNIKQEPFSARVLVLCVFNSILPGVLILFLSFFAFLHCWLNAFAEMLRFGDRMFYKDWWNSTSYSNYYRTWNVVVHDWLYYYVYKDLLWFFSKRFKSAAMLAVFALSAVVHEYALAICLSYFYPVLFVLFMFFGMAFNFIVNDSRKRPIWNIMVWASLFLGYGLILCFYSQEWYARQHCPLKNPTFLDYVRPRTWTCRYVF

[8] = target: T2, Sterol O-acyltransferase 1; assay: Inhibition of ACAT1 in mouse J774 cells assessed as reduction in esterified cholesterol accumulation after 18 hrs in presence of 25-hydroxycholesterol; type: cell-based
Hamster [9] = assay: Toxicity in Bio F1B hamster model of diet-induced atherosclerosis assessed as reduction in total plasma cholesterol at 1 mg/kg/day added to chow pellets relative to control; type: organism-based; set-up: scale not given: the % may be the effect or the level left; settings: cricetinae, in vivo
Hamster [10] = assay: Toxicity in Bio F1B hamster model of diet-induced atherosclerosis assessed as reduction in total plasma cholesterol at 10 mg/kg/day added to chow pellets relative to control; type: organism-based; set-up: scale not given: the % may be the effect or the level left; settings: cricetinae, in vivo
[11] = Cmax in non-fasted Sprague-Dawley rat at 30 mg/kg, po by LC-MS/MS analysis; type: ADME, organism-based; set-up: dose 30 mg/kg, route oral; settings: in vivo
[12] = Inhibition of SOAT2 in New Zealand white rabbit intestinal microsomes assessed as reduction in cholesteryl oleate formation incubated for 5 mins in presence of [14C]-oleoyl-CoA and BSA complex by TLC method; set-up: species or system Oryctolagus cuniculus, Intestine
[13] = AUC (0 to 8 hrs) in non-fasted Sprague-Dawley rat at 30 mg/kg, po by LC-MS/MS analysis; type: ADME, organism-based; set-up: dose 30 mg/kg, time < 8 hr, route oral; settings: in vivo
[14] = target: T3, Sterol O-acyltransferase 1 (Rattus norvegicus, UniProt O70536); assay: Inhibition of ACAT1 in 0.2 mg/ml rat liver microsomes
T3 sequence (O70536 whole entry): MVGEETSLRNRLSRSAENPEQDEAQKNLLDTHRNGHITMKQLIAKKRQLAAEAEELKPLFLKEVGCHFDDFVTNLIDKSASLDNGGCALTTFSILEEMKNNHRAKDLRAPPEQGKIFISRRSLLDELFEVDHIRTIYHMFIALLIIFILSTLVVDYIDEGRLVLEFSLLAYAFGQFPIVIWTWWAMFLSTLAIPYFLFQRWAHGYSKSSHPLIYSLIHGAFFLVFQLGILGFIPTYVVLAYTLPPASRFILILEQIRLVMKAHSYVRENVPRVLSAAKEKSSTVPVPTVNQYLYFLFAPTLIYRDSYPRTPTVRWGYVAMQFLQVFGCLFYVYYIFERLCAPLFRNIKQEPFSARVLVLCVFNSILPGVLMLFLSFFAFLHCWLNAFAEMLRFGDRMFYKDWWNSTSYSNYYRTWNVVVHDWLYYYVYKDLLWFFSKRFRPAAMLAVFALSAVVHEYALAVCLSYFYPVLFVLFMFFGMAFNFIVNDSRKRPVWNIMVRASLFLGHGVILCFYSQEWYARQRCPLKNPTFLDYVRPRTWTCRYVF

Hamster [15] = assay: Antiatherosclerotic activity in Bio F1B hamster model of diet-induced atherosclerosis assessed as reduction in lipid accumulation areas in aortic arch at 1 mg/kg/day added to chow pellets by oil red O staining based assay relative to control; type: functional; settings: Cricetinae
[16] = Tmax in non-fasted Sprague-Dawley rat at 30 mg/kg, po by LC-MS/MS analysis; type: ADME, organism-based; settings: in vivo
[17] = target: T2, Sterol O-acyltransferase 1; assay: Inhibition of ACAT1 in mouse IC21 cells in presence of BSA; type: cell-based
[18] = target: T3, Sterol O-acyltransferase 1; assay: Inhibition of ACAT1 in 1 mg/ml rat liver microsomes
Hamster [19] = assay: Antiatherosclerotic activity in Bio F1B hamster model of diet-induced atherosclerosis assessed as reduction in lipid accumulation areas in aortic arch at 0.3 mg/kg/day added to chow pellets by oil red O staining based assay; type: functional, organism-based; settings: Cricetinae
[20] = Inhibition of rabbit intestinal ACAT2; set-up: species or system Oryctolagus cuniculus
[21] = Drug metabolism in New Zealand white rabbit intestinal microsomes assessed as 2-((6-((2,6-Diisopropylphenyl)amino)-6-oxohexyl)thio)-benzo[d]oxazole-4-carboxylic acid formation after 30 mins; type: ADME, Oryctolagus cuniculus, Intestine, microsome; settings: 0.5 h
[22] = Drug metabolism in New Zealand white rabbit intestinal microsomes assessed as -((6-((2,6-Diisopropylphenyl)amino)-6-oxohexyl)thio)benzo-[d]oxazole-7-carboxylic acid formation after 30 mins; type: ADME, Oryctolagus cuniculus, Intestine, microsome; settings: 0.5 h

| Structure (SMILES) | pIC50 [4] | Ratio IC50 (Oryctolagus cuniculus) | pIC50 [8] | pIC50 [12] | also measured |
| --- | --- | --- | --- | --- | --- |
| CC(C)c1cc(C(C)C)c(CC(=O)NS(=O)(=O)Oc2c(C(C)C)cccc2C(C)C)c(C(C)C)c1 [AVASIMIBE] | 4.51 | 0.4 | 6.23 | 4.89 | pIC50 [1]: 7.60; pIC50 [2]: 5.39; inhibition in vivo at 3 mg/kg/day (Hamster [3]): 14%; Activity (Hamster [5]): 25%; inhibition in vivo at 10 mg/kg/day (Hamster [6]): 0%; pIC50 [7]: 7.22; Activity (Hamster [9]): 55%; Activity (Hamster [10]): 10%; Cmax [11]: 4580 ng/mL; AUC(0-t) at 8 h [13]: 48100 ng·h/mL; pIC50 [14]: 6.15; inhibition in vivo at 1 mg/kg/day (Hamster [15]): 33%; Tmax [16]: 3.3 h; pIC50 [17]: 6.12; pIC50 [18]: 4.92; inhibition (Hamster [19]): Active |
| CCCCCCCCCCC(C)(C)C(=O)Nc1c(OC)cc(OC)cc1OC [CL-976] | 6.72 |  |  | 7.52 | pIC50 [20]: 7.14 |
| COC(=O)c1cccc2oc(SCCCCCC(=O)Nc3c(C(C)C)cccc3C(C)C)nc12 | 7.59 | 31.2 | 6.05 | 6.09 | Drug metabolism [21]: Metabolite_Detected; Drug metabolism [22]: Metabolite_Detected |
| CC(C)c1cccc(C(C)C)c1NC(=O)CCCCSc1nc2ccccc2o1 | 7.08 | 2.6 | 5.44 | 6.66 |  |
| CC(C)c1cccc(C(C)C)c1NC(=O)CCCCCSc1nc2cccnc2o1 | 7.62 | 1.5 | 5.52 | 7.44 |  |
| CC(C)c1cccc(C(C)C)c1NC(=O)CCCCCSc1nc2c(N(C)C)cccc2o1 | 7.54 | 4.1 | 6.30 | 6.92 |  |
| CC(C)c1cccc(C(C)C)c1NC(=O)CCCCCSc1nc2ccc(O)cc2o1 | 7.28 | 1.5 | 5.64 | 7.09 |  |

Source: ChEMBL document CHEMBL4229418, “Design, synthesis and pharmacology of aortic-selective acyl-CoA: Cholesterol O-acyltransferase (ACAT/SOAT) inhibitors” (Bioorg Med Chem, 2018)
